{
  "source": "patent US20100069490A1",
  "about": "(priority 2006, published 2010)",
  "origin": "cited, not measured here",
  "key": {"[1]": {"tested_on": "bacteria"}, "[2]": {"tested_on": "lipase", "details": "pure or in combination with synergisms"}, "[3]": {"tested_on": "human polymorphonuclear leukocytes"}, "[4]": {"tested_on": "rhino mouse model", "details": "applied locally"}, "[5]": {"details": "in vivo and in vitro"}},
  "note": "Counter-ions that a name gives are not always drawn.",
  "data": [
    {"smiles": "CCOC(=O)CC(O)(CC(=O)OCC)C(=O)OCC", "note": "[Triethyl citrate, Triethyl-2-hydroxypropan-1,2,3-tricarboxylate]", "values": [
      {"measurement": "antibacterial activity", "setting": "[1]", "result": "has antibacterial activity"},
      {"measurement": "inhibition of hydrolysis of the triglycerides", "setting": "[2]", "result": "able to inhibit hydrolysis of the triglycerides"}
    ]},
    {"smiles": "COc1ccc(-c2ccc3cc(C(=O)O)ccc3c2)cc1C12CC3CC(CC(C3)C1)C2", "note": "[Adapalene, 6-[3-(1-adamantyl)-4-methoxypheny]-2-naphthanoic acid]", "values": [
      {"measurement": "inhibition of chemiotaxic and chemiokinetic response", "setting": "[3]", "result": "inhibits the chemiotaxic and chemiokinetic response"},
      {"measurement": "comedolitic activity", "setting": "[4]", "result": "comedolitic"},
      {"measurement": "anti-inflammatory activity versus reference retinoids", "setting": "[5]", "result": "superior to the reference retinoids"}
    ]}
  ]
}
